Here are results for 20 compounds from PubChem BioAssay AID328 (DTP/NCI, 2004).

Values joined by “and” are separate entries in the source; they are usually repeats but may differ in a detail not shown here. Equal values may be shown once. Inconclusive results and toxic doses are left out.

The test relates to BDF1 mice, P388 leukemia ip, median survival T/C. Briefly: NCI In Vivo Anticancer Drug Screen. Data for tumor model P388 Leukemia (intraperitoneal) in B6D2F1 (BDF1) mice. The conditions noted are these: endpoint: median survival time, higher = longer survival. The procedure, abridged: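 In tumour-bearing mice, survival after compound treatment is set against the vehicle group and given as a quotient.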

The mark [1] stands for this setting: dose: 25.0 mg/kg/injection, schedule: Q01DX009 (ip), vehicle: Klucel (hydroxypropylcellulose) (HPC).
[2] abbreviates: dose: 25.0 mg/kg/injection, schedule: Q04DX003 (ip), vehicle: saline.
Where [3] appears, read: dose: 50.0 mg/kg/injection, schedule: Q04DX003 (ip), vehicle: saline.
Setting [4] is: dose: 100.0 mg/kg/injection, schedule: Q04DX003 (ip), vehicle: saline.
Where [5] appears, read: dose: 25.0 mg/kg/injection, schedule: Q01DX009 (ip), vehicle: saline.
The mark [6] stands for this setting: dose: 50.0 mg/kg/injection, schedule: Q01DX009 (ip), vehicle: saline.
Where [7] appears, read: dose: 100.0 mg/kg/injection, schedule: Q01DX009 (ip), vehicle: saline.
Where [8] appears, read: dose: 25.0 mg/kg/injection, schedule: Q01DX009 (ip), vehicle: saline with Tween-80.
Where [9] appears, read: dose: 50.0 mg/kg/injection, schedule: Q01DX009 (ip), vehicle: saline with Tween-80.
Where [10] appears, read: dose: 100.0 mg/kg/injection, schedule: Q01DX009 (ip), vehicle: saline with Tween-80.
[11] abbreviates: dose: 200.0 mg/kg/injection, schedule: Q01DX009 (ip), vehicle: saline.
The mark [12] stands for this setting: dose: 200.0 mg/kg/injection, schedule: Q01DX009 (ip), vehicle: saline with Tween-80.
Setting [13] is: dose: 50.0 mg/kg/injection, schedule: Q01DX005 (ip), vehicle: saline with Tween-80.
Where [14] appears, read: dose: 100.0 mg/kg/injection, schedule: Q01DX005 (ip), vehicle: saline with Tween-80.

With `COc1ccc(C(SCC(N)C(=O)O)(c2ccccc2)c2ccc(OC)cc2)cc1` (stereo not given), the T/C was 123 % of control (dose: 3.0 mg/kg/injection, schedule: Q01DX009 (ip), vehicle: Klucel (hydroxypropylcellulose) (HPC)); 104 % of control (dose: 4.8 mg/kg/injection, schedule: Q04DX003 (ip), vehicle: Klucel (hydroxypropylcellulose) (HPC)); 150 % of control (dose: 7.0 mg/kg/injection, schedule: Q01DX009 (ip), vehicle: Klucel (hydroxypropylcellulose) (HPC)); 104 % of control (dose: 7.2 mg/kg/injection, schedule: Q04DX003 (ip), vehicle: Klucel (hydroxypropylcellulose) (HPC)); 170 % of control (dose: 10.0 mg/kg/injection, schedule: Q01DX009 (ip), vehicle: Klucel (hydroxypropylcellulose) (HPC)); 122 % of control (dose: 11.0 mg/kg/injection, schedule: Q04DX003 (ip), vehicle: Klucel (hydroxypropylcellulose) (HPC)). Further, the T/C reads like this: (dose: 16.0 mg/kg/injection, schedule: Q01DX009 (ip), vehicle: Klucel (hydroxypropylcellulose) (HPC)) 154 % of control; under setting [1], 172 % of control and 181 % of control; under setting [2], 154 % of control; (dose: 33.0 mg/kg/injection, schedule: Q04DX003 (ip), vehicle: saline) 209 % of control; (dose: 35.0 mg/kg/injection, schedule: Q01DX009 (ip), vehicle: Klucel (hydroxypropylcellulose) (HPC)) 204 % of control; under setting [3], 209 % of control and 213 % of control. For the same compound, the T/C is, setting by setting: (dose: 75.0 mg/kg/injection, schedule: Q04DX003 (ip), vehicle: saline) 231 % of control; under setting [4], 95 % of control.
As for `Nc1nc2ccccc2nc1N`, the T/C under setting [5] was 100 % of control; the T/C under setting [2] was 100 % of control; the T/C under setting [6] was 100 % of control; the T/C under setting [3] is 95 % of control; the T/C under setting [7] was 90 % of control; the T/C under setting [4] is 91 % of control.
Take `Cc1ccc(S(=O)(=O)c2ccc([N+](=O)[O-])c3no[n+]([O-])c23)cc1`: the T/C reads like this: under setting [8], 104 % of control; under setting [9], 108 % of control; under setting [10], 116 % of control.
With `O=C1C(OC(=O)c2ccccc2)=C(c2ccc(O)cc2)C(=O)C(OC(=O)c2ccccc2)=C1c1ccc(O)cc1`, the T/C reads like this: (dose: 100.0 mg/kg/injection, schedule: Q01DX009 (ip), vehicle: Klucel (hydroxypropylcellulose) (HPC)) 100 % of control; (dose: 200.0 mg/kg/injection, schedule: Q01DX009 (ip), vehicle: Klucel (hydroxypropylcellulose) (HPC)) 100 % of control; (dose: 400.0 mg/kg/injection, schedule: Q01DX009 (ip), vehicle: Klucel (hydroxypropylcellulose) (HPC)) 92 % of control.
For `O=S(CC(Cl)c1ccccc1)c1ccccc1` (stereo not given), the T/C was 106 % of control (dose: 50.0 mg/kg/injection, schedule: Q01DX009 (ip), vehicle: other); 106 % of control (dose: 100.0 mg/kg/injection, schedule: Q01DX009 (ip), vehicle: other); 100 % of control (dose: 200.0 mg/kg/injection, schedule: Q01DX009 (ip), vehicle: other).
On to `CCOC(=O)c1cnc2c(OC)cccc2c1Cl`, for which the T/C reads like this: (dose: 4.0 mg/kg/injection, schedule: Q01DX009 (ip), vehicle: saline) 86 % of control; (dose: 8.0 mg/kg/injection, schedule: Q01DX009 (ip), vehicle: saline) 91 % of control; (dose: 16.0 mg/kg/injection, schedule: Q01DX009 (ip), vehicle: saline) 106 % of control; under setting [5], 120 % of control; under setting [6], 113 % of control; under setting [3], 96 % of control. Further, the T/C under setting [7] is 111 % of control; the T/C under setting [4] was 96 % of control; the T/C under setting [11] is 113 % of control; the T/C (dose: 200.0 mg/kg/injection, schedule: Q04DX003 (ip), vehicle: saline) was 97 % of control; the T/C (dose: 400.0 mg/kg/injection, schedule: Q01DX009 (ip), vehicle: saline) is 113 % of control; the T/C (dose: 400.0 mg/kg/injection, schedule: Q04DX003 (ip), vehicle: saline) was 90 % of control.
Consider `COC(=O)c1ccccc1OP(=O)(N(C)C)N(C)C`, for which the T/C by setting is: under setting [9], 94 % of control; under setting [10], 110 % of control; under setting [12], 105 % of control.
Take `Cc1nc(Br)c2cnccn12`: the T/C was 118 % of control (dose: 12.5 mg/kg/injection, schedule: Q01DX009 (ip), vehicle: saline) and 109 % of control under setting [5].
Take `CCn1cnc2c(C(F)(F)F)nc(N)nc21`: the T/C by setting is: (dose: 12.5 mg/kg/injection, schedule: Q01DX009 (ip), vehicle: Klucel (hydroxypropylcellulose) (HPC)) 100 % of control; under setting [1], 110 % of control; (dose: 50.0 mg/kg/injection, schedule: Q01DX009 (ip), vehicle: Klucel (hydroxypropylcellulose) (HPC)) 110 % of control.
Regarding `O=C(N/N=C/c1cccc(Cl)c1)c1ccccc1`, the T/C runs as follows: (dose: 100.0 mg/kg/injection, schedule: Q04DX003 (ip), vehicle: other) 95 % of control; (dose: 200.0 mg/kg/injection, schedule: Q04DX003 (ip), vehicle: other) 95 % of control; (dose: 400.0 mg/kg/injection, schedule: Q04DX003 (ip), vehicle: other) 113 % of control.
As to `Cc1cccc(/C=N/Nc2ccccn2)n1`, the T/C was 108 % of control under setting [13] and 118 % of control under setting [14].
Turning to `CC1=NN(CCO)C(=O)C1`, the T/C reads like this: under setting [9], 95 % of control; under setting [10], 92 % of control; under setting [12], 93 % of control.
With `CN(C)c1ccc(C2OC3(CCCCC3)C[N+]23CCCC3)cc1` (stereo not given), the T/C is, setting by setting: (dose: 18.0 mg/kg/injection, schedule: Q01DX009 (ip), vehicle: saline) 110 % of control; under setting [2], 95 % of control; (dose: 28.0 mg/kg/injection, schedule: Q01DX009 (ip), vehicle: saline) 105 % of control; (dose: 40.0 mg/kg/injection, schedule: Q01DX009 (ip), vehicle: saline) 94 % of control; under setting [3], 100 % of control; (dose: 75.0 mg/kg/injection, schedule: Q01DX001 (ip), vehicle: Klucel (hydroxypropylcellulose) (HPC)) 104 % of control. Further, the T/C by setting is: under setting [4], 90 % of control; (dose: 150.0 mg/kg/injection, schedule: Q01DX001 (ip), vehicle: Klucel (hydroxypropylcellulose) (HPC)) 100 % of control.
Regarding `COc1cc(Cl)c(CC(=O)c2c[nH]c3ccccc23)cc1OC`, the T/C runs as follows: under setting [9], 103 % of control; under setting [12], 99 % of control.
In the case of `CCC(=O)O[C@H]1CC[C@H]2[C@@H]3CC(=C(Br)Br)C4=CC(=O)CC[C@]4(C)[C@H]3CC[C@]12C`, the T/C by setting is: (dose: 12.5 mg/kg/injection, schedule: Q01DX009 (ip), vehicle: saline with Tween-80) 91 % of control; under setting [8], 100 % of control; under setting [9], 86 % of control and 90 % of control.
As for `C(=C\c1nc2ncccn2n1)/c1ccccc1`, the T/C by setting is: under setting [9], 101 % of control; under setting [10], 87 % of control; under setting [12], 100 % of control.
As for `CCN(CCN)c1cccc(C)c1`, the T/C is, setting by setting: (dose: 25.0 mg/kg/injection, schedule: Q04DX003 (ip), vehicle: saline sonified) 100 % of control; (dose: 50.0 mg/kg/injection, schedule: Q04DX003 (ip), vehicle: saline sonified) 120 % of control; (dose: 100.0 mg/kg/injection, schedule: Q04DX003 (ip), vehicle: saline sonified) 100 % of control.
Take `CCCC(C(CC)CO)C(CC)C(O)C(CC)CO` (stereo not given): the T/C runs as follows: under setting [13], 100 % of control; under setting [14], 94 % of control; (dose: 200.0 mg/kg/injection, schedule: Q01DX005 (ip), vehicle: saline with Tween-80) 99 % of control.
As to `CC1(C)COC(C)(C)C(=O)O1`, the T/C by setting is: (dose: 50.0 mg/kg/injection, schedule: Q04DX003 (ip), vehicle: Klucel (hydroxypropylcellulose) (HPC)) 95 % of control; (dose: 100.0 mg/kg/injection, schedule: Q04DX003 (ip), vehicle: Klucel (hydroxypropylcellulose) (HPC)) 90 % of control; (dose: 200.0 mg/kg/injection, schedule: Q04DX003 (ip), vehicle: Klucel (hydroxypropylcellulose) (HPC)) 100 % of control.
For the compound `OCCCC1CCCCC1`, the T/C runs as follows: under setting [6], 111 % of control; under setting [7], 113 % of control; under setting [11], 117 % of control.
